# Measured values from patent publication US20240415819A1, “MACROCYCLIC COMPOUNDS AS PROTEASOME SUBUNIT BETA TYPE-5 INHIBITORS” (Lead Discovery Center GmbH, priority 2021, published 2024).
# Test system: Karpas cells
# Experiment: Glo assay of Karpas cells (Table 3; ProteasomeGlo plating scheme)
# Assay type: cell-based
# Details: read-out: Pglo Karpas
# In short: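 Compound treatment lasts 105 minutes at 37° C. under 5% CO2. Suc-LLVY-Glo substrate premixed with detection reagent (60 min at room temperature) is then added directly to the cells, and luminescence after 10-15 min in the dark gives the IC50 in nM.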
row,SMILES,IC50
1,"CCC(C(=O)N[C@H]1CC(=O)N2CCCC(CCOc3ccc(C)c(c3)CNC(=O)[C@H](CCc3ccccc3)NC1=O)C2)c1ccc(OC)c(OC)c1 (stereo partly drawn) [Compound 64, 2-(3,4-dimethoxyphenyl)-N-((9S,12S)-5^4-methyl-8,11,14-trioxo-9-phenethyl-4-oxa-7,10-diaza-1(3,1)-piperidina-5(1,3)-benzenacyclotetradecaphane-12-yl)butanamide]",< 100 nM

# Test system: hPMBC
# Experiment: Chymotrypsin-like ProteasomeGlo assay in hPBMC
# Assay type: cell-based
# Details: Homo sapiens; read-out: Pglo hPBMC
# In short: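 IC50 derived from luminescent chymotrypsin-like proteasome activity (Suc-LLVY-Glo substrate plus luciferin detection reagent). Measured after 105 min compound exposure at 37 °C, 5% CO2. Cells were human B cells purified from buffy-coat PBMC.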
row,SMILES,IC50
1,"CCC(C(=O)N[C@H]1CC(=O)N2CCCC(CCOc3ccc(C)c(c3)CNC(=O)[C@H](CCc3ccccc3)NC1=O)C2)c1ccc(OC)c(OC)c1 (stereo partly drawn) [Compound 64, 2-(3,4-dimethoxyphenyl)-N-((9S,12S)-5^4-methyl-8,11,14-trioxo-9-phenethyl-4-oxa-7,10-diaza-1(3,1)-piperidina-5(1,3)-benzenacyclotetradecaphane-12-yl)butanamide]",< 100 nM
2,"Cc1ccc2cc1CNC(=O)[C@H](CCc1ccccc1)NC(=O)[C@H](NC(=O)OCc1ccccc1)CC(=O)N1CCC[C@H](CCO2)C1 [Compound 291, benzyl ((13R,9S,12R)-5^4-methyl-8,11,14-trioxo-9-phenethyl-4-oxa-7,10-diaza-1(3,1)-piperidina-5(1,3)-benzenacyclotetradecaphane-12-yl)carbamate]",1000 to 5000 nM
3,"Cc1ccc2cc1CNC(=O)[C@H](CCc1ccccc1)NC(=O)[C@@H](NC(=O)OCc1ccccc1)CC(=O)N1CCC[C@H](CCO2)C1 [Compound 292, benzyl ((13R,9S,12S)-5^4-methyl-8,11,14-trioxo-9-phenethyl-4-oxa-7,10-diaza-1(3,1)-piperidina-5(1,3)-benzenacyclotetradecaphane-12-yl)carbamate]",< 100 nM
4,"Cc1ccc2cc1CNC(=O)[C@H](CCc1ccccc1)NC(=O)[C@@H](NC(=O)OCC1(C)COC1)CC(=O)N1CCCC(CCO2)C1 (stereo partly drawn) [Compound 293, (3-methyloxetan-3-yl)methyl ((9S,12S)-5^4-methyl-8,11,14-trioxo-9-phenethyl-4-oxa-7,10-diaza-1(3,1)-piperidina-5(1,3)-benzenacyclotetradecaphane-12-yl)carbamate]",< 100 nM
5,"CC(=O)N[C@H]1CC(=O)N2CCCC(CCOc3ccc(C)c(c3)CNC(=O)C(c3cnn(Cc4ccccc4)c3)NC1=O)C2 (stereo partly drawn) [Compound 565, N-((12S)-9-(1-benzyl-1H-pyrazol-4-yl)-5^4-methyl-8,11,14-trioxo-4-oxa-7,10-diaza-1(3,1)-piperidina-5(1,3)-benzenacyclotetradecaphane-12-yl)acetamide]",100 to 500 nM
